From PubChem BioAssay (NCI)
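Five concentrations, 48 hours, 96-well plates. TGI marks complete inhibition of growth.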

What was measured:
Experiment in all cases: inhibition of tumour cell growth, NCI panel, 48 h
[1] = tested on: 786-0 renal
[2] = tested on: T-47D breast
[3] = tested on: NCI/ADR-RES ovarian
[4] = tested on: UACC-257 melanoma
[5] = tested on: SK-MEL-2 melanoma
[6] = tested on: RPMI-8226 leukemia
[7] = tested on: ACHN renal
[8] = tested on: NCI-H23 lung
[9] = tested on: PC-3 prostate
[10] = tested on: DMS 114 small cell lung
[11] = tested on: KM20L2 colon
[12] = tested on: DLD-1 colon

Cc1cc2c(O)c(c1)CN(CC(=O)O)Cc1cc(C)cc(c1O)CN(CC(=O)O)Cc1cc(C)cc(c1O)CN(CC(=O)O)C2
TGI [1]: > 100 µM
TGI [2]: > 100 µM
TGI [3]: > 100 µM
TGI [4]: > 100 µM
TGI [5]: > 100 µM
TGI [6]: > 100 µM
TGI [7]: > 100 µM
TGI [8]: > 100 µM
TGI [9]: > 100 µM

Nc1nc(Cl)cc(NCC2(O)CC2)n1
TGI [1]: > 100 µM
TGI [2]: > 100 µM
TGI [3]: > 100 µM
TGI [4]: > 100 µM
TGI [5]: > 100 µM
TGI [6]: > 100 µM
TGI [7]: > 100 µM
TGI [8]: > 100 µM
TGI [9]: > 100 µM

Cc1cc2ncn(C3CCCCO3)c2cc1C (stereo not drawn)
TGI [1]: > 100 µM
TGI [2]: > 100 µM
TGI [3]: > 100 µM
TGI [4]: > 100 µM
TGI [5]: > 100 µM
TGI [6]: > 100 µM
TGI [7]: > 100 µM
TGI [8]: > 100 µM
TGI [9]: > 100 µM

C/C=C(/C)C(=O)OC1CC(C)[C@H]2CC(=O)C(C)=C2CC1C(C)(C)OC(C)=O (stereo partly drawn)
TGI [1]: > 100 µM
TGI [2]: 46.2 µM
TGI [3]: 71.7 µM
TGI [4]: 51.6 µM
TGI [5]: 27 µM
TGI [6]: 60.8 µM
TGI [7]: > 100 µM
TGI [8]: > 100 µM
TGI [9]: > 100 µM

COC(=O)[C@@H]1CCCCC[C@H]2C(CO)=C(C)C(=O)C12 (stereo partly drawn)
TGI [10]: > 100 µM
TGI [1]: > 100 µM
TGI [11]: > 100 µM
TGI [4]: > 100 µM
TGI [5]: > 100 µM
TGI [6]: > 100 µM
TGI [7]: > 100 µM
TGI [8]: > 100 µM
TGI [12]: > 100 µM

c1ccc2c(c1)Sc1nccc3ccnc-2c13
TGI [1]: > 100 µM
TGI [2]: > 100 µM
TGI [3]: > 100 µM
TGI [4]: > 100 µM
TGI [5]: > 100 µM
TGI [6]: > 100 µM
TGI [7]: 43.4 µM
TGI [8]: > 100 µM
TGI [9]: > 100 µM

Cc1[nH]c(=O)nc(NCCNCCO)c1C(=O)Nc1cccc2cc3ccccc3cc12
TGI [1]: > 100 µM
TGI [2]: > 100 µM
TGI [3]: > 100 µM
TGI [4]: > 100 µM
TGI [5]: > 100 µM
TGI [6]: > 100 µM
TGI [7]: > 100 µM
TGI [8]: > 100 µM
TGI [9]: > 100 µM

O=C1C=CC(=O)c2c(O)c(N3CCC[C@H]3CO)c(Cl)c(O)c21
TGI [1]: 3.64 µM
TGI [2]: 4.57 µM
TGI [3]: 4.06 µM
TGI [4]: 1.92 µM
TGI [5]: 5.53 µM
TGI [6]: 1.09 µM
TGI [7]: 4.53 µM
TGI [8]: 4.61 µM
TGI [9]: > 10 µM

CN(C)CC1CCC/C(=C\c2ccc(OC(=O)c3ccc(Cl)cc3)cc2)C1=O (stereo not drawn)
TGI [1]: 2.3 µM
TGI [2]: 2.21 µM
TGI [3]: 4.99 µM
TGI [4]: 16.7 µM
TGI [5]: 10.6 µM
TGI [6]: 1.99 µM
TGI [7]: 8.44 µM
TGI [8]: 3.5 µM
TGI [9]: 18.4 µM

CSc1cc(=O)n2c3ccccc3c3ccnc1c32
TGI [10]: > 100 µM
TGI [3]: > 100 µM
TGI [11]: > 100 µM
TGI [4]: > 100 µM
TGI [5]: > 100 µM
TGI [6]: > 100 µM
TGI [8]: > 100 µM
TGI [12]: > 100 µM

C[C@]12CCC(=O)[C@@H](CCC3=CC(=O)C=CC3=O)[C@@H]1CCC2=O
TGI [1]: 41.1 µM
TGI [2]: > 81.7 µM
TGI [3]: > 100 µM
TGI [4]: 39 µM
TGI [5]: 27.1 µM
TGI [6]: > 100 µM
TGI [7]: 32.5 µM
TGI [8]: 38.2 µM
TGI [9]: 27.5 µM

O=c1[nH]c2nc3ccccc3nc2[nH]c1=O
TGI [1]: > 100 µM
TGI [2]: > 100 µM
TGI [3]: > 100 µM
TGI [4]: > 100 µM
TGI [5]: > 100 µM
TGI [6]: > 100 µM
TGI [7]: > 100 µM
TGI [8]: > 100 µM
TGI [9]: > 100 µM

CCn1c2ccc(C(=O)CCCN3CCCCC3)cc2c2cc(C(=O)CCCN3CCCCC3)ccc21
TGI [1]: 2.78 µM
TGI [2]: 49.9 µM
TGI [3]: 13.1 µM
TGI [4]: 3.77 µM
TGI [5]: 3.52 µM
TGI [6]: 4.7 µM
TGI [7]: 15.8 µM
TGI [8]: 4.49 µM
TGI [9]: 12.6 µM

O=c1nc2c(c(-c3ccc(Br)cc3)[nH]1)COC/C2=C\c1ccc(Br)cc1
TGI [1]: > 50 µM
TGI [2]: > 50 µM
TGI [3]: > 50 µM
TGI [4]: > 50 µM
TGI [5]: > 50 µM
TGI [6]: > 50 µM
TGI [7]: > 50 µM
TGI [8]: > 50 µM
TGI [9]: > 50 µM

COc1ccc(-c2c3c(n(C4OC(CO)C(O)C(O)C4O)c(=S)c2C#N)CCC3)cc1 (stereo not drawn)
TGI [1]: > 100 µM
TGI [2]: > 100 µM
TGI [3]: > 100 µM
TGI [4]: > 100 µM
TGI [5]: > 100 µM
TGI [6]: > 100 µM
TGI [7]: > 100 µM
TGI [8]: > 100 µM
TGI [9]: > 100 µM

CCC1=C(C(C)=O)[C@@H]2CCCCC[C@@H](C(=O)OC)C2C1=O (stereo partly drawn)
TGI [10]: > 100 µM
TGI [1]: > 100 µM
TGI [11]: > 100 µM
TGI [4]: > 100 µM
TGI [5]: > 100 µM
TGI [6]: > 100 µM
TGI [7]: > 100 µM
TGI [8]: > 100 µM
TGI [12]: > 100 µM
